Target: T1, MsPLD (phospholipase D from Moritella sp. JT01) (Moritella sp. JT01, UniProt A0A137SLD1)
T1 construct: gene AKG98_3441; precursor 578 residues; C-terminal 6xHis (pET-21a); E. coli SHuffle T7; about 62 kDa
T1 sequence (A0A137SLD1 29-578): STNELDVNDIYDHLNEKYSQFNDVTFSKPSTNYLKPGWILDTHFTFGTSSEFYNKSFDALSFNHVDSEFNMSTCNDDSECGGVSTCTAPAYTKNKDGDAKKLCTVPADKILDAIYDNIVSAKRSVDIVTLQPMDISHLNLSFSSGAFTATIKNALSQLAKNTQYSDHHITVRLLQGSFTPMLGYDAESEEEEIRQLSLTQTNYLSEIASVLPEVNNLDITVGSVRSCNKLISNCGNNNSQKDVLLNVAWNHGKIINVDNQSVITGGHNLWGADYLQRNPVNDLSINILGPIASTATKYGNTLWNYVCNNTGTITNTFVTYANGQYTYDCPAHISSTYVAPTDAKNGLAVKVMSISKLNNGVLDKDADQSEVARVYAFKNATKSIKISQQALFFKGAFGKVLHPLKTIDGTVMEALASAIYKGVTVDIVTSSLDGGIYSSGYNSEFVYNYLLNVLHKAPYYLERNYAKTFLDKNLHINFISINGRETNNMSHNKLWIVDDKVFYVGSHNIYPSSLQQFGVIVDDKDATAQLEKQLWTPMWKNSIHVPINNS
Assay: enzyme-linked colorimetry (choline oxidase/peroxidase), Michaelis-Menten
Format: biochemical
Conditions: 0.1 M Tris-HCl pH 8.0, 35 °C, SDS and Triton X-100 in assay mixture; 0.5-8.0 mM PC; natural soybean PC, acyl chains not defined (class of species, no single structure)
Protocol: enzyme-linked colorimetry (choline oxidase/peroxidase), Michaelis-Menten on MsPLD (phospholipase D from Moritella sp. JT01) | the kinetic parameters of MsPLD to soy PC were determined

L-α-phosphatidylcholine from soybean
Km: 3.44 ± 0.81 mM

— article PMC9570413, “A New Phospholipase D from Moritella sp. JT01: Biochemical Characterization, Crystallization and Application in the Synthesis of Phosphatidic Acid” (International Journal of Molecular Sciences, 2022)
